Assay results taken from US7173053B2, “N-formyl hydroxylamine derivatives as inhibitors of bacterial polypeptide formylase for treating microbial infections” (British Biotech Pharmaceuticals Limited, priority 2000, dated 2007).
Values after ≈ are worked out from the molar mass of the structure shown.

Legend:
S. aureus ATCC 29213 = assay: agar plate dilution MIC, S. aureus ATCC 29213; assay type: cell-based; details: Staphylococcus aureus, ATCC29213, Iso-Sensitest agar pH 7.2, 18 to 24 hr incubation
Protocol: (§1) The susceptibilities of two strains of bacteria to the compounds of Example 1–4 were determined by a standard agar plate dilution method following recommendations in British Society for Antimicrobial Chemotherapy Working Party. 1991, “A guide to sensitivity testing British Society for Antimicrobial Chemotherapy, London, United Kingdom”. Briefly, Iso-Sensitest agar (pH 7.2: Oxoid, United Kingdom) is employed, supplemented with 5% horse blood (Oxoid) and 20 μg of NAD (Sigma) per ml are added to support growth of fastidious bacteria. The inoculum used is approximately 10^4 colony forming units of each isolate contained in a volume of 1 μl. Plates are incubated 18 to 24 hr in air, or for fasidious bacteria an atmosphere enriched with 4–6% carbon dioxide at 35° C. The MIC is determined as the lowest concentration of an antimicrobial tested that inhibited growth of the inoculum, disregarding a single persisting colony or faint haze caused by the inoculation.

S. pneumoniae ATCC 49619 = assay: agar plate dilution MIC, S. pneumoniae ATCC 49619; assay type: cell-based; details: Streptococcus pneumoniae, ATCC49619, Iso-Sensitest agar pH 7.2, 18 to 24 hr incubation
Protocol: as §1

Row | Compound | MIC (S. aureus ATCC 29213) [µg/mL] | MIC (S. pneumoniae ATCC 49619) [µg/mL]
1 | CC(C)(C)[C@H](NC(=O)[C@H](CC1CCCC1)CN(O)C=O)c1nc2ccccc2[nH]1 [Example 3, N-[1-(1H-Benzoimidazol-2-yl)-2,2-dimethyl-propyl]-2-cyclopentylmethyl-3-(formyl-hydroxy-amino)-propionamide] | 8 (≈ 20 µM) | 2 (≈ 4.99 µM)
2 | CC(C)(C)[C@H](NC(=O)[C@H](CC1CCCC1)CN(O)C=O)c1nc2cc(F)ccc2[nH]1 [Example 1, 2R-Cyclopentylmethyl-N-[1S-(5-fluoro-1H-benzoimidazol-2-yl)-2,2-dimethyl-propyl]-3-(formyl-hydroxy-amino)-propionamide] | 4 (≈ 9.56 µM) | 2 (≈ 4.78 µM)
3 | CC(C)(C)[C@H](NC(=O)[C@H](CC1CCCC1)CN(O)C=O)c1nc2cc(Cl)ccc2[nH]1 [Example 2, N-[1-(5-Chloro-1H-benzoimidazol-2-yl)-2,2-dimethyl-propyl]-2-cyclopentylmethyl-3-(formyl-hydroxy-amino)-propionamide] | 8 (≈ 18.4 µM) | 2 (≈ 4.6 µM)
4 | CCCC[C@H](CN(O)C=O)C(=O)N[C@H](c1nc2ccccc2[nH]1)C(C)(C)C [Example 4, 2-[(Formyl-hydroxy-amino)-methyl]-hexanoic acid [1-(1H-benzoimidazol-2-yl)-2,2-dimethyl-propyl]-amide] | 8 (≈ 21.4 µM) | 4 (≈ 10.7 µM)
